Test results taken from US6139840A, “Methods of eliciting an antibody response using flea protease proteins and homologs thereof” (priority 1997, dated 2000).
Read-outs that look alike come from different tables or passages of the source. Square brackets hold non-standard residues; d marks the D form. Peptide text beside a SMILES is read from it. * marks the point of attachment. Sta = CC(C)C[C@H](N)[C@@H](O)CC(=O)O; Isovaleryl = CC(C)CC(=O)*

How the values were obtained:
adult fleas = assay: Flea feeding system: viability and fecundity of fleas fed blood containing protease inhibitors; format: in vivo; conditions: for Fecundity Days 1-7 / Adult Survival Female / Adult Survival Male / Adult Survival Total: percent of corresponding control group; for reduction in adult viability: not statistically significant
Protocol: This Example evaluates the effect of a number of protease inhibitors on flea viability and fecundity in a flea feeding system as described by Wade et al. ibid.
Protease inhibitor compounds were tested in groups of 3 to 6 including appropriate control groups. Inhibitors were not tested in groups of common inhibition types. Rather, they were tested in groups based on the diluent needed to dissolve them. (AEBSF, aprotinin, bestatin, leupeptin, phosphoramidon, soybean trypsin inhibitor and soybean trypsin/chymotrypsin inhibitor were dissolved in water; E-64 and pepstatin were dissolved in ethanol). This reduced the number of control (diluent only) groups needed within a particular assay. Inhibitor concentrations were chosen such that the lower concentration used was within the range recommended by the supplier for that inhibitor. The higher concentration was typically 10 times above the lower concentration and was used to look for dose response.
The general protocol for all of the assays was as follows: Approximately 2000 newly emerged adult fleas were placed in feeding chambers to feed on normal blood for about 24 to 48 hr. The fleas were prefed for two reasons: The first was to be certain that only fleas that would feed in the feeding system were used in the comparative study.
The prefed fleas were placed in "minifeeder" feeding chambers at a ratio of about 80 female fleas to about 20 male fleas for a total of about 100 fleas per chamber. Actual total number of fleas per chamber varied from about 90 to 125 fleas. […] Three chambers were prepared for each experimental and control group. A fresh blood meal containing the appropriate inhibitor in 3 ml total volume was placed on each chamber daily through the 7 day extent of an assay.
On days 3, 5, and 7 of the assay, surviving adult fleas were transferred to clean chambers. The contents of the original chambers were dissolved in about 40 ml of PBS (phosphate-buffered saline) in a 50 ml Falcon tube. The contents of a given tube were then filtered through a preweighed #1 Whatman filter disk inserted into a vacuum filter. The 50 ml tube and the filter funnel were rinsed with distilled water which was then passed through the filter. Once the chamber contents had been filtered, dead adult fleas were removed from the filter paper and placed in a labelled tube so that they could be counted and sexed. The filter paper was then placed into a preweighed 12×75 polypropylene tube and dried in the SpeedVac for 2.5 hr with the heater on. After drying the filter paper was weighed. The weight of the filter paper and tube was subtracted to obtain the dry weight of the eggs and this value was converted to an estimated number of eggs using the formula y=41384.361x+162.37, where x=dry weight of eggs.
On day 7, adult fleas that had survived the study were frozen, counted and sexed. The numbers were added to the number of male and female fleas that had died during the assay to verify the number of male and female fleas in each chamber at the start of the study.
Female, male and total adult flea survival were calculated for all experimental and control groups on days 3, 5, and 7 of each assay. Additionally, the number of eggs per surviving female was calculated on days 3, 5 and 7. Female fleas found dead on a given collection date were included in the total number of egg-laying females for the days between that date and the previous collection date, providing a conservative estimate of fecundity. Fecundity values were averaged for the three collection dates to obtain an average for each group over 7 days.
Results of these studies are presented below in Table 1 and FIG. 6 through FIG. 9. All survival and fecundity values are presented below as a percent of control value.

flea midgut proteases = assay: Protease substrate gel analysis of flea midguts with protease inhibitors in the incubation buffers; format: biochemical; conditions: for effect on protease activity in protease substrate gel: unfed and fed female midguts, AEBSF 1 mM, soybean trypsin inhibitor 100 μg/ml, leupeptin 10 μg/ml in all incubation buffers
Protocol: Protease substrate gels (available from Novex, San Diego, Calif., as Novex Zymogels) were 10% polyacrylamide-SDS gels with 0.1% gelatin. Samples and gels were processed according to Novex instructions. Briefly, samples were diluted in SDS-PAGE sample buffer without reducing agents. Tris-glycine SDS-PAGE was carried out by standard procedures. After electrophoresis, gels were incubated in 0.25% Triton X-100 at room temperature for 30 minutes (min), then in developing buffer (50 mM (millimolar) Tris-HCl pH 7.0, 5 mM CaCl2, 0.02% Brij 35, 0.2 M (molar) NaCl) at room temperature for 30 min, and then incubated with fresh developing buffer at 37° C., usually overnight. Gels were then stained 30 min in 0.5% coomassie R-250, 40% methanol, 10% acetic acid and destained in 40% methanol, 10% acetic acid.
Three unfed female midguts and 0.75 fed female midguts were evaluated in duplicate in several protease substrate gels. Each gel was cut in half. Half was processed as described in Example 2, while the other half contained protease inhibitors in all incubation buffers. The following inhibitors were evaluated:
Mixed-sex fed flea midguts were processed as described in U.S. Pat. No. 5,356,622, ibid. Aliquots of several steps of the procedure were evaluated by loading an equivalent of 0.4 midguts per lane of a protease substrate gel as described in Example 2. Samples were from the low speed supernatant (lanes 2 and 9), sonicated midguts (lanes 3 and 10), high speed supernatant (lanes 4 and 11), combined low and high speed supernatants (FGS) (lanes 5 and 12) and the high speed pellet (lanes 6 and 13). Lanes 7 and 8 contained 50 nanograms (ng) of trypsin as a control. Duplicate lanes were evaluated. The gel was cut in half, and lanes 1-7 were processed as described in Example 2, and lanes 8-14 were processed with 100 μg/ml soybean trypsin inhibitor in all the incubation buffers.

flea aminopeptidase = assay: Leu-AMC cleavage by serine protease-depleted flea midgut lysate; format: biochemical
Protocol: The starting material for the isolation of a flea aminopeptidase was a flea midgut lysate preparation that had been depleted of serine proteases by passage over a benzamidine-Sepharose affinity column. To assay for aminopeptidase activity, the synthetic substrate L-Leucine-AMC (Leu-AMC), which releases a fluorescent AMC leaving group upon proteolytic cleavage, was incubated with the serine protease-depleted flea midgut preparation. Aminopeptidase activity was easily detectable with as little as 1.2 μg of lysate, both confirming the presence of an aminopeptidase (as indicated in other Examples herein) and allowing for the detection of aminopeptidase activity in fractions collected throughout subsequent fractionation and purification procedures.

leucine aminopeptidase = assay: Leu-AMC cleavage by control protease; format: biochemical; conditions: 10 mM EDTA, 86 μg/ml bestatin; substrate Leu-AMC
[1] = at the concentrations tested in blood meal
[2] = 1 mM pefabloc, 1 mg/ml trypsin/chymotrypsin inhibitor, 1 mg/ml trypsin inhibitor, 1 mM TPCK, 1 μg/ml pepstatin, 10 μg/ml E-64, 10 μg/ml leupeptin, 10 mM EDTA, 86 μg/ml bestatin, lysate about 1.2 μg and about 12 μg
[3] = 1 μg/ml in blood meal, second 1 μg/ml line under E-64
[4] = 10 μg/ml in blood meal, second 10 μg/ml line under E-64

## Cl.NCCc1ccc(S(=O)(=O)F)cc1 [AEBSF, 4-2-aminoethyl-benzenesulfonylfluoride-hydrochloride]
Adult fleas; 0.3 mM in blood meal
  Fecundity Days 1-7: 82.4%
Adult fleas; 0.5 mM in blood meal
  Fecundity Days 1-7: 95.0%
Adult fleas; 5.0 mM in blood meal
  Adult Survival Female: 6.8%
  Adult Survival Male: 0.0%
  Adult Survival Total: 5.6%
  Fecundity Days 1-7: 1.4%
Adult fleas; 6.0 mM in blood meal
  Adult Survival Female: 4.1%
  Adult Survival Male: 0.0%
  Adult Survival Total: 3.4%
  Fecundity Days 1-7: 17.2%
Adult fleas; about 5 mM to about 6 mM in blood meal
  reduction in flea fecundity: more than 80%
Adult fleas; about 5 mM to about 6 mM in blood meal, p<0.05
  adult survival: reduced to near zero
Flea midgut proteases
  effect on protease activity in protease substrate gel: only inhibitors to have any effect

## CC(C)C[C@H](NC(=O)[C@@H](O)[C@H](N)Cc1ccccc1)C(=O)O [Bestatin]
Adult fleas; 1.3 mM in blood meal
  Fecundity Days 1-7: 60.4%
Adult fleas; 1.3 mM in blood meal, significant (p<0.05)
  reduction in fecundity: 40%
Adult fleas; 13.0 mM in blood meal
  Fecundity Days 1-7: 23.3%
Adult fleas; 13 mM in blood meal, significant (p<0.05)
  reduction in fecundity: 77%
Adult fleas; [1]
  effect on adult viability: no significant effect on adult viability
Flea aminopeptidase; [2]
  inhibition of the flea protease that cleaved Leu-AMC: inhibited
Leucine aminopeptidase
  inhibition of the control protease: inhibited

## CC(C)CC(NC(=O)C1OC1C(=O)O)C(=O)NCCCCNC(=N)N [E-64, trans-epoxysuccinyl-L-leucylamido-(4-guanidino)butane]
Adult fleas; [3]
  Adult Survival Female: 77.3%
  Adult Survival Male: 80.0%
  Adult Survival Total: 77.5%
  Fecundity Days 1-7: 95.2%
Adult fleas; 1 μg/ml in blood meal
  Adult Survival Female: 99.9%
  Fecundity Days 1-7: 109.4%
Adult fleas; [4]
  Adult Survival Female: 90.2%
  Adult Survival Male: 91.1%
  Adult Survival Total: 90.6%
  Fecundity Days 1-7: 84.1%
Adult fleas; 10 μg/ml in blood meal
  Fecundity Days 1-7: 177.4%
Adult fleas; [1]
  effect on fecundity: no statistically significant reduction in fecundity
Adult fleas; dissolved in grain alcohol, 1 μg/ml in blood
  total adult flea survival: small, but significant (p<0.05), reduction
Adult fleas; in grain alcohol, 10 μg/ml in blood
  total adult flea survival: not evident
Flea aminopeptidase; [2]
  inhibition of the flea protease that cleaved Leu-AMC: Only bestatin inhibited

## O=C(O)CN(CCN(CC(=O)O)CC(=O)O)CC(=O)O [EDTA, ethylenediaminetetraacetic acid]
Flea aminopeptidase
  inhibition of the flea protease that cleaved Leu-AMC: Only bestatin inhibited
Leucine aminopeptidase
  inhibition of the control protease: inhibited

## CC(=O)N[C@@H](CC(C)C)C(=O)N[C@@H](CC(C)C)C(=O)N[C@H](C=O)CCCNC(=N)N [Leupeptin]
Adult fleas; 5 μg/ml in blood meal
  reduction in adult viability: 30%
  Adult Survival Female: 71.0%
  Adult Survival Male: 61.4%
  Adult Survival Total: 68.4%
  Fecundity Days 1-7: 85.0%
Adult fleas; 50 μg/ml in blood meal
  effect on adult viability: not affected
  Fecundity Days 1-7: 77.6%
Adult fleas; [1]
  effect on fecundity: no effect on fecundity
Flea aminopeptidase
  inhibition of the flea protease that cleaved Leu-AMC: Only bestatin inhibited
Flea midgut proteases
  effect on protease activity in protease substrate gel: only inhibitors to have any effect

## CC(C)CC(=O)N[C@H](C(=O)N[C@H](C(=O)N[C@@H](CC(C)C)[C@@H](O)CC(=O)N[C@@H](C)C(=O)N[C@@H](CC(C)C)[C@@H](O)CC(=O)O)C(C)C)C(C)C [Pepstatin A] (Isovaleryl-VV[Sta]A[Sta]-OH)
Adult fleas; 1 μg/ml in blood meal
  Adult Survival Female: 77.6%
  Adult Survival Male: 96.6%
  Adult Survival Total: 80.5%
  Fecundity Days 1-7: 67.7%
Adult fleas; 1 μg/ml in blood meal, significant (p<0.05)
  reduction in fecundity: 32%
Adult fleas; 10 μg/ml in blood meal
  Fecundity Days 1-7: 83.9%
Adult fleas; [1]
  effect on adult viability: no significant effect on adult viability
Flea aminopeptidase
  inhibition of the flea protease that cleaved Leu-AMC: Only bestatin inhibited

## CC(C)C[C@H](NP(=O)(O)O[C@@H]1O[C@@H](C)[C@H](O)[C@@H](O)[C@H]1O)C(=O)N[C@@H](Cc1c[nH]c2ccccc12)C(=O)O [Phosphoramidon]
Adult fleas; 10 μg/ml in blood meal
  Adult Survival Female: 98.8%
  Adult Survival Male: 95.2%
  Adult Survival Total: 97.8%
  Fecundity Days 1-7: 89.0%
Adult fleas; 100 μg/ml in blood meal
  Adult Survival Female: 70.2%
  Adult Survival Male: 64.6%
  Adult Survival Total: 69.7%
  Fecundity Days 1-7: 84.9%
Adult fleas; [1]
  effect on fecundity: no significant reduction in fecundity
Adult fleas; concentration not given
  reduction in adult viability: about 30%

## Cc1ccc(S(=O)(=O)N[C@@H](Cc2ccccc2)C(=O)CCl)cc1 [TPCK, N-tosyl-L-phenylalanine chloromethyl ketone]
Flea aminopeptidase; [2]
  inhibition of the flea protease that cleaved Leu-AMC: Only bestatin inhibited

## Cl.NCCc1ccc(S(=O)(=O)F)cc1 [pefabloc]
Flea aminopeptidase; [2]
  inhibition of the flea protease that cleaved Leu-AMC: Only bestatin inhibited

B1: Soybean Trypsin Inhibitor: serine protease inhibitor, available from Sigma (protein, UniProt P01070 25-205, looked up)
Trypsin inhibitor A: DFVLDNEGNPLENGGTYYILSDITAFGGIRAAPTGNERCPLTVVQSRNELDKGIGTIISSPYRIRFIAEGHPLSLKFDSFAVIMLCVGIPTEWSVVEDLPEGPAVKIGENKDAMDGWFRLERVSDDEFNNYKLVFCPQQAEDDKCGDIGISIDHDDGTRRLVVSKNKPLVVQFQKLDKESL
Adult fleas; 10 μg/ml in blood meal
  effect on fecundity: no effect
  Adult Survival Female: 80.1%
  Adult Survival Male: 101.7%
  Adult Survival Total: 83.9%
  Fecundity Days 1-7: 96.1%
Adult fleas; 100 μg/ml in blood meal
  Adult Survival Female: 76.5%
  Adult Survival Male: 76.0%
  Adult Survival Total: 76.3%
  Fecundity Days 1-7: 79.1%
Adult fleas; 100 μg/ml in blood meal, statistically insignificant
  reduction in fecundity: 20%
Flea aminopeptidase
  inhibition of the flea protease that cleaved Leu-AMC: Only bestatin inhibited
Flea midgut proteases; mixed-sex fed flea midgut fractions, 100 μg/ml in all incubation buffers
  inhibition of protease activity in protease substrate gel: majority of the activity was inhibited
Flea midgut proteases
  effect on protease activity in protease substrate gel: only inhibitors to have any effect
